The source made the active and inactive calls. No cut-off for these calls is given here.

Among the data in ChEMBL document CHEMBL1122800, “Synthesis of a tricyclic aphidicolin analogue that inhibits DNA synthesis in vitro” (J Med Chem, 1984) are inhibition values, retold here.

The test system of the first assay is Nucleic Acid. Description: Ability of compound to inhibit DNA synthesis against the uptake of [3H]thymidine in freshly seeded cultures of SV-40 transformed WI-38 human lung fibroblast at a concentration 0.15 ug/mL.
For orientation: inhibition means the percentage by which the read-out fell short of the control. Take `C[C@@]1(CO)[C@H](O)CC[C@@]2(C)[C@H]1CC[C@H]1C[C@@H]3C[C@@]12CC[C@]3(O)CO`: the inhibition amounted to 50%.
As for `C[C@@]1(CO)C(O)CC[C@]2(C)C3CC(O)CC3CC[C@@H]12` (some centres not stated), the inhibition was found to be 50%.

Another assay deals with Nucleic Acid. Description: Ability of compound to inhibit DNA synthesis against the uptake of [3H]thymidine in freshly seeded cultures of SV-40 transformed WI-38 human lung fibroblast; NA = no activity.
Turning to `C[C@]12CCC(O)[C@@](C)(CO)[C@@H]1CCC1CC(O)C=C12` (some centres not stated), the inhibition entry is “inactive”.
As for `C[C@]12CCC(O)[C@@](C)(CO)[C@@H]1CCC1C[C@H](O)C[C@@H]12` (some centres not stated), the inhibition entry was “inactive”.
Take `C[C@]12CCC(O)[C@@](C)(CO)[C@@H]1CCC1CC(=O)C=C12` (some centres not stated): the inhibition entry was “inactive”.
For the compound `C[C@@]1(CO)C(O)CC[C@]2(C)C3CC(=O)CC3CC[C@@H]12` (some centres not stated), the inhibition result was “inactive”.
Same read-out and setting: the result for `C[C@]12CCC(O)[C@@](C)(CO)[C@@H]1CCC1CC(=O)C[C@@H]12` (some centres not stated) reads “inactive”.
